Experimental findings from ChEMBL document CHEMBL4613240, “Pagoamide A, a Cyclic Depsipeptide Isolated from a Cultured Marine Chlorophyte, Derbesia sp., Using MS/MS-Based Molecular Networking” (J Nat Prod, 2020) are described below.

The source made the active and inactive calls. No cut-off for these calls is given here.

One assay concerns Cerebral cortex neuron. Briefly: Modulation of calcium oscillation in Swiss-Webster gravid dams mouse cerebrocortical neurons measured for 2 mins on day 12 by fluo-3 AM dye based fluorescence assay. It is filed as functional, cell-based.
For another assay, the system named is NCI-H460. The assay can be described thus: Cytotoxicity against human NCI-H460 cells at 30 uM incubated for 48 hrs by MTT assay. It is filed as functional, cell-based.

As for `CC(C)[C@@H]1NC(=O)[C@@H](Cc2ccccc2)NC(=O)[C@@H](C)NC(=O)[C@H](CO)NC(=O)[C@@H](NC(=O)[C@@H](CO)NC(=O)c2csc(CNC(=O)c3csc([C@H](C(C)C)N(C)C)n3)n2)[C@@H](C)OC(=O)[C@H](Cc2ccccc2)NC1=O`, the outcome in the assay on Cerebral cortex neuron and with NCI-H460 was inactive.
